Each structure is given as a SMILES string. Like-named read-outs stand apart in the source and are kept apart here.

The target in data set [1] is T1, rat native α7 receptors (Rattus norvegicus, UniProt Q05941).
T1 construct: rat native α7 receptors in rat hippocampal membranes; from tissue; host or cells: rat hippocampus (female Sprague-Dawley)
Nature of the data set: [3H]MLA binding, rat hippocampal membranes. On the procedure: Rats (female, Sprague-Dawley), weighing 150-250 g, were maintained on a 12 h light/dark cycle and were allowed free access to water and food supplied by PMI Nutrition International, Inc. Animals were anesthetized with 70% CO2, and then decapitated. Brains were removed and placed on an ice-cold platform. The hippocampus was removed and placed in 10 volumes (weight:volume) of ice-cold preparative buffer (137 mM NaCl, 10.7 mM KCl, 5.8 mM KH2PO4, 8 mM Na2HPO4, 20 mM HEPES (free acid), 5 mM iodoacetamide, 1.6 mM EDTA, pH 7.4); PMSF, dissolved in methanol to a final concentration of 100 μM, was added and the tissue suspension was homogenized by Polytron. […] Protein was determined by the method of Lowry et al., J. Biol. Chem. 193: 265 (1951), using bovine serum albumin as the standard.
The binding of [^3H]MLA was measured using a modification of the methods of Davies et al., Neuropharmacol. […] The binding of [^3H]MLA was determined using a 2 h incubation at 21° C. […] Non-specific binding was determined by inclusion of 50 μM non-radioactive MLA in selected wells.
The inhibition of [^3H]MLA binding by test compounds was determined by including seven different concentrations of the test compound in selected wells. […] Inhibition constants (Ki values), reported in nM, were calculated from the IC50 values using the method of Cheng et al., Biochem. Pharmacol. 22: 3099-3108 (1973).

Data set [2] relates to panel of 65 receptors. The data set is described as follows: Multiple receptor screening assay. Type of data set: binding. The following applies: single concentration of 10 μM. As for the experimental part: (R)-3-((E)-2-(Pyrrolidin-3-yl)vinyl)-5-(tetrahydropyran-4-yloxy)pyridine or a salt thereof was tested for selectivity against a panel of 65 receptors.
The test system of data set [3] is normal rats. The data set is described as follows: Novel object recognition (NOR). Type of data set: in vivo, rat. The following applies: for NOR duration of statistically significant effect after dosing: dose 0.004 μM/kg (0.004 μmol/kg oral), FIG. 2. As for the experimental part: Memory was assessed by using a three-trial novel object recognition test (Luine et al., Pharm. Biochem. Behav. 74, 213-220 (2002)). On the first day (exploratory trial), rats were allowed to explore an open arena (44.5×44.5×30.5 cm) for 6 min. On the second day (acquisition trial), rats were allowed to explore the same arena in the presence of two identical objects (both object A) for 3 min. On the third day (retention or recall trial), performance was evaluated by allowing the same animal to re-explore the arena for 3 min in the presence of two different objects: the familiar object A and a novel object B. An inter-trial interval of 24 h was imposed between the three NOR trials. Recognition memory was assessed by comparing the time spent exploring a novel (object B) versus a familiar (object A) object during the recall trial. Recognition index was assessed for each animal and expressed as a ratio ((time B/time A+time B)×100).
(R)-3-((E)-2-(Pyrrolidin-3-yl)vinyl)-5-(tetrahydropyran-4-yloxy)pyridine or a salt thereof improved long-term visual episodic/declarative memory as assessed by novel object recognition (NOR) task following oral dosing in normal rats. […] In the two “recall only” sessions; subset of animals were orally dosed with water on day 1 (i.e., exploratory session) and day 2 (i.e., acquisition session) and then orally dosed either with 1.1 μmol/kg (R)-3-((E)-2-(pyrrolidin-3-yl)vinyl)-5-(tetrahydropyran-4-yloxy)pyridine or a salt thereof (left panel) or 0.04 μmol/kg (right panel) on day 3 (i.e., recall session). […] In the Figure, the dashed line at 65% denotes subjective criteria for biological cognitive enhancing activity. *P<0.05.
(R)-3-((E)-2-(Pyrrolidin-3-yl)vinyl)-5-(tetrahydropyran-4-yloxy)pyridine or a salt thereof was evaluated for its duration of effect in the NOR task in normal rats. […] In the Figure, the dashed line at 65% denotes subjective criteria for biological cognitive enhancing activity (*P<0.05).

The target of data set [4] is CYP1A2 (Homo sapiens, UniProt P05177). Type of data set: in vitro ADME.
Data set [5] is classed as in vitro ADME. The following applies: human. The source says: (§1) Therefore any variation of (R)-3-((E)-2-(pyrrolidin-3-yl)vinyl)-5-(tetrahydropyran-4-yloxy)pyridine or a salt thereof metabolism in human due to CYP polymorphism is expected to be less than 2 fold due to the significant renal clearance and low hepatic clearance.
For data set [6], the system named is CYP2D6 and FMO3. The data set is classed as in vitro ADME. The note with it: human.
Excerpt: as §1

T1 sequence (Q05941 23-502): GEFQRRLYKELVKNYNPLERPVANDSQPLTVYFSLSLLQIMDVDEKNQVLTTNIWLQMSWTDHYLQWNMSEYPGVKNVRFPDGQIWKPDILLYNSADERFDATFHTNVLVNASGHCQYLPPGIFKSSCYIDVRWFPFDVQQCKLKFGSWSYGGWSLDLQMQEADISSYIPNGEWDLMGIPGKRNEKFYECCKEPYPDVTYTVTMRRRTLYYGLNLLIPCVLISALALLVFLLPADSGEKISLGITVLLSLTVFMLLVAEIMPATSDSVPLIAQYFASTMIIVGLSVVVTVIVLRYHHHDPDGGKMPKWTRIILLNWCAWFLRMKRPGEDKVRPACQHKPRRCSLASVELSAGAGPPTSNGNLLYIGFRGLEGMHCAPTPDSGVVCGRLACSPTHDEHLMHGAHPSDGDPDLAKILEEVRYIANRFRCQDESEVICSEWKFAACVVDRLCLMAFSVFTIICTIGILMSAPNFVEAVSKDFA
Chain of CYP1A2 (P05177 whole entry): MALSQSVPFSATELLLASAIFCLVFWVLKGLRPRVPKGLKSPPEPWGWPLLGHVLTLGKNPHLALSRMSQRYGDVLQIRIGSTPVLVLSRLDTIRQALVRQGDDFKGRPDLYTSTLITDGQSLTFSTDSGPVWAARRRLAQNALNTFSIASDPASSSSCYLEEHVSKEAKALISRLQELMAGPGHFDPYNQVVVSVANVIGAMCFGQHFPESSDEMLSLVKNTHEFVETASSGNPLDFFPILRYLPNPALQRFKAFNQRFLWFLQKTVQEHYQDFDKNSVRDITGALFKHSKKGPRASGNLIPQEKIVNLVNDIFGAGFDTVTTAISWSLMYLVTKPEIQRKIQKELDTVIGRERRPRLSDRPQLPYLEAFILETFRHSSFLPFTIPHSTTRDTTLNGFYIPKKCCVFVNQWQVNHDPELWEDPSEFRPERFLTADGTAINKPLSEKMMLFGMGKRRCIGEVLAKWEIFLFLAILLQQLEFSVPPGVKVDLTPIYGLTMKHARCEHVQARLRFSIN

A word on the Ki: it is a dissociation constant, usually derived from enzyme kinetics or from competition with a known ligand. With `C(=C\[C@H]1CCNC1)/c1cncc(OC2CCOCC2)c1` [Compound A, (R)-3-((E)-2-(pyrrolidin-3-yl)vinyl)-5-(tetrahydropyran-4-yloxy)pyridine], the inhibition constant Ki was over 10 µM in data set [1] and over 10 µM in data set [1] (read-out: Rat hippocampus (α7) Ki, [3H]methyllycaconitine (MLA), rat hippocampal membranes). Moreover, the “Multiple receptor screening assay, receptors hit” value is on record as “only to neuronal nicotinic receptors (α-BnTx insensitive)” in data set [2] and “Only nicotinic” in data set [2] (listed as (R)-3-(2-(pyrrolidin-3-yl)vinyl)-5-((tetrahydro-2H-pyran-4 yl)oxy)pyridine). In addition, the NOR recognition index was found to be 72±2% in data set [3] (0.004 μmol/kg oral, 0.5 h after dosing); 70±3% in data set [3] (0.004 μmol/kg oral, 6 h after dosing); 70±4% in data set [3] (0.004 μmol/kg oral, 8 h after dosing); 71±2% in data set [3] (0.04 μmol/kg oral, normal rats, 24 h after acquisition trial); 61±3% in data set [3] (1.1 μmol/kg oral, normal rats, 24 h after acquisition trial). The “NOR lowest dose with statistically significant effect” value in data set [3] (FIG. 1) was at least 0.004 µM/kg. In addition, the “NOR duration of statistically significant effect after dosing” value is at most 8 h in data set [3], “up to 8 h” in data set [3] (listed as (R)-3-((E)-2-(pyrrolidin-3-yl)vinyl)-5-(tetrahydropyran-4-yloxy)pyridine) and at most 8 h in data set [3] (listed as Formula I). Moreover, the “NOR minimum effect dose (MED)” value in data set [3] (oral, follow-up NOR study, rats) is 0.004 µmol/kg. In addition, the “NOR recognition index, recall only sessions” value in data set [3] (single oral administration on day 3, 1.1 μmol/kg or 0.04 μmol/kg) is “significantly above controls”. Moreover, the “time-dependent inhibition of CYP1A2” value in data set [4] is given as “no evidence of time-dependent inhibition”. Moreover, in data set [5], the hepatic turnover rate entry is “low hepatic turnover rate”. The “enzymes contributing to metabolism” value in data set [6] was “both CYP2D6 and FMO3 contributed to the metabolism”.

The record behind these values is patent publication US8153821B2, “Compounds” (priority 2008, dated 2012).
